This assay concerns the target T1, hSCN9A (Homo sapiens, UniProt Q15858).
T1 construct: expressed in transfected cells
Put plainly: Whole-cell patch-clamp electrophysiology (conventional or PatchXpress), HEK cells expressing hSCN9A, estimated IC-50. The class given is cell-based. As to conditions: estimated IC-50, HEK cells expressing hSCN9A; class symbols or bounds; read-out: SCN9A EIC-50. How it is done:
Human Embryonic Kidney (HEK) cells were transfected with hSCN3A or hSCN9A constructs using lipofectamine reagent (Invitrogen), using standard techniques. Cells stably expressing the hSCN3A or hSCN9A constructs were identified by their resistance to G-418 (400 μg/ml). Clones were screened for expression using the whole-cell voltage-clamp technique. HEK cells stably transfected with hSCN3A or hSCN9A were maintained in DMEM medium supplemented with 10% heat-inactivated fetal bovine serum and 400 μg/ml G418 sulfate in an incubator at 37° C. with a humidified atmosphere of 10% CO2. For HTS, cells were harvested from flasks by trypsinization and replated in an appropriate multi-well plate (typically 96 or 384 wells/plate) such that confluence would be achieved within 24 hours of plating. For electrophysiological studies, cells were removed from the culture flask by brief trypsinization and replated at low density onto glass cover slips. Cells were typically used for electrophysiological experiments within 24 to 72 h after plating. Cover slips containing HEK cells expressing hSCN3A or hSCN9A were placed in a bath on the stage of an inverted microscope and perfused (approximately 1 ml/min) with extracellular solution of the following composition: 138 mM NaCl, 2 mM CaCl2, 5.4 mM KCl, 1 mM MgCl2, 10 mM glucose, and 10 mM HEPES, pH 7.4, with NaOH. […] All recordings were made at room temperature (22-24° C.) using AXOPATCH 200B amplifiers and PCLAMP software (Axon Instruments, Burlingame, Calif.) or PatchXpress 7000 hardware and associated software (Axon Instruments, Burlingame, Calif.). hSCN3A or hSCN9A currents in HEK cells were measured using the whole-cell configuration of the patch-clamp technique (Hamill et al., 1981). […] As a result, voltage errors were negligible and no correction was applied. Current records were acquired at 20 to 50 KHz and filtered at 5 to 10 KHz. HEK cells stably transfected with hSCN3A or hSCN9A were viewed under Hoffman contrast optics and placed in front of an array of flow pipes emitting either control or compound-containing extracellular solutions. All compounds were dissolved in dimethyl sulfoxide to make 10 mM stock solutions, which were then diluted into extracellular solution to attain the final concentrations desired. […] The voltage-dependence of inactivation was determined by applying a series of depolarizing prepulses (8 sec long in 10 mV increments) from a negative holding potential. The voltage was then immediately stepped to 0 mV to assess the magnitude of the sodium current. Currents elicited at 0 mV were plotted as a function of prepulse potential to allow estimation of the voltage midpoint of inactivation (V1/2). Cells were then voltage clamped at the empirically determined V1/2. Compounds were tested for their ability to inhibit hSCN3A or hSCN9A sodium channels by activating the channel with a 20 msec voltage step to 0 mV following an 8 second conditioning prepulse to the empirically determined V1-2 (Table B). Compound effect (% inhibition) was determined by difference in current amplitude before and after application of test compounds. […] In some cases electrophysiological assays were conducted with PatchXpress 7000 hardware and associated software (Molecular Devices Corp) (Table B). All assay buffers and solutions were identical to those used in conventional whole-cell voltage clamp experiments described above. hSCN3A or hSCN9A containing cells were grown as above to 50%-80% confluency and harvested by trypsinization. Trypsinized cells were washed and resuspended in extracellular buffer at a concentration of 1×10^6 cells/ml. The onboard liquid handling facility of the PatchXpress was used for dispensing cells and application of test compounds. Determination of the voltage midpoint of inactivation was as described for conventional whole-cell recordings. Cells were then voltage-clamped to the empirically determined V1/2 and current was activated by a 20 msec voltage step to 0 mV.

We go through 28 molecules from patent US8124610B2, “Sodium channel inhibitors” (Icagen Inc., priority 2007, dated 2012).

Some results are limits rather than exact numbers.

T1 sequence (Q15858 whole entry): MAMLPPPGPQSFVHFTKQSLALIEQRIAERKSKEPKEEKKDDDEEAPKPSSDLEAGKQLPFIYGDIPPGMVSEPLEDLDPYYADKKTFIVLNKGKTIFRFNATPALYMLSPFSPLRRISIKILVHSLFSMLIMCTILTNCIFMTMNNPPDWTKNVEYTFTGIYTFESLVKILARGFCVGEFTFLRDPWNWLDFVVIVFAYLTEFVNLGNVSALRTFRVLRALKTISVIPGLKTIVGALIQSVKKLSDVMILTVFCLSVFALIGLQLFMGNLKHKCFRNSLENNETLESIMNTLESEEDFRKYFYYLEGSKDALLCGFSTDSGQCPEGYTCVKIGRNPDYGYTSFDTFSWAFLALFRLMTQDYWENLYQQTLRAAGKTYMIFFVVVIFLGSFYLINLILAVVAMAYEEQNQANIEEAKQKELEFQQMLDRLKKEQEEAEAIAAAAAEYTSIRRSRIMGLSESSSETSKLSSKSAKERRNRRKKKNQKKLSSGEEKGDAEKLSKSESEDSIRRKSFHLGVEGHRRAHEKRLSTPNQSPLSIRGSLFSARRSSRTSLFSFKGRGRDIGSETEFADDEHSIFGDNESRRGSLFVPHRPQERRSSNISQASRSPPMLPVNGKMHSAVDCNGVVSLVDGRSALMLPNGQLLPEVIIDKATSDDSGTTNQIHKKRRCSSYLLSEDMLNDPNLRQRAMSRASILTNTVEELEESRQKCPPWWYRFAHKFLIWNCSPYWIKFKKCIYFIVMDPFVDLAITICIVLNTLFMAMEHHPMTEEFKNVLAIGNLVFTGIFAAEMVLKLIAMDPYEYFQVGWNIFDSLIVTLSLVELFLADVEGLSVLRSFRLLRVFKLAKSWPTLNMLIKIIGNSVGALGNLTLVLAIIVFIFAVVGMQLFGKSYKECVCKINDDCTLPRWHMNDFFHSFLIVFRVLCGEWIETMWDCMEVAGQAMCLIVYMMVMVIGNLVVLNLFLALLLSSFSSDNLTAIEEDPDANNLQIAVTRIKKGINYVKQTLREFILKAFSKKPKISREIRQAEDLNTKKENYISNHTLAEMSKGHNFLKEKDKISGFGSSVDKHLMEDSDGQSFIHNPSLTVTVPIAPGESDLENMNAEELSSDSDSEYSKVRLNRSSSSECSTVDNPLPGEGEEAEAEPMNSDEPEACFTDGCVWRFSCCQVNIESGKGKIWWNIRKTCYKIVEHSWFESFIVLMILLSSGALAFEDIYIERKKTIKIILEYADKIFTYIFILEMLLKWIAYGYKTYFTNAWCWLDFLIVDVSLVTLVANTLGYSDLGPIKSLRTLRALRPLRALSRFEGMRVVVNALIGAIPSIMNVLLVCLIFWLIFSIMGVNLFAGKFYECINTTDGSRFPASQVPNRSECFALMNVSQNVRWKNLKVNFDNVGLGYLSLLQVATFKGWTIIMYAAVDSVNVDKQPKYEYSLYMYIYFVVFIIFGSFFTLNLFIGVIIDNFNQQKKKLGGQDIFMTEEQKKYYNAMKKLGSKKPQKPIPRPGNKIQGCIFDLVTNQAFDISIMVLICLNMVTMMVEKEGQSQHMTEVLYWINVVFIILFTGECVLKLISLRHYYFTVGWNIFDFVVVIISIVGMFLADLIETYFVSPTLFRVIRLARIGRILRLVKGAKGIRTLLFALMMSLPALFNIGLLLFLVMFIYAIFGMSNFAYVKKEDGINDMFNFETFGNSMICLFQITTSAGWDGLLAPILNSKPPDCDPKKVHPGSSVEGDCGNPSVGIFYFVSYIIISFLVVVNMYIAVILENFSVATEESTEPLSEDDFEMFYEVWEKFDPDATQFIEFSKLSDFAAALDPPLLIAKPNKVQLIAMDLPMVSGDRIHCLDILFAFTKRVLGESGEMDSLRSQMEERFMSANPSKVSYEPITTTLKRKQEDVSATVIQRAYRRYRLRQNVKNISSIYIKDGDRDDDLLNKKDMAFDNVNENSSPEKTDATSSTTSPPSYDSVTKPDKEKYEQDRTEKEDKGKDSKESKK

Take `CC(C)(C)c1ccc(OCc2csc(Nc3ccc(S(=O)(=O)Nc4nccs4)c(F)c3)n2)cc1` [Compound 102, 4-(4-((4-tert-butylphenoxy)methyl)thiazol-2-ylamino)-2-fluoro-N-(thiazol-2-yl)benzenesulfonamide]: the IC50 is < 2000 nM.
With `O=S(=O)(Nc1nccs1)c1ccc(Nc2nc(-c3ccc(Cl)cc3)cs2)cc1F` [Compound 104, 4-(4-(4-chlorophenyl)thiazol-2-ylamino)-2-fluoro-N-(thiazol-2-yl)benzenesulfonamide] the figure was > 1000 nM; with `O=S(=O)(Nc1nccs1)c1ccc(Nc2nc3ccccc3o2)cc1` [Compound 114, 4-(benzo[d]oxazol-2-ylamino)-N-(thiazol-2-yl)benzenesulfonamide], 2000 to 10000 nM; with `CC(C)(C)c1csc(Nc2ccc(S(=O)(=O)Nc3nccs3)nc2)n1` [Compound 116, 5-(4-tert-butylthiazol-2-ylamino)-N-(thiazol-2-yl)pyridine-2-sulfonamide], > 1000 nM.
With `O=S(=O)(Nc1nccs1)c1ccc(Nc2nc3ccccc3s2)cc1` [Compound 117, 4-(benzo[d]thiazol-2-ylamino)-N-(thiazol-2-yl)benzenesulfonamide] the figure was > 1000 nM; with `O=S(=O)(Nc1nccs1)c1ccc(Nc2nnc(Cc3ccc(Cl)cc3)o2)cc1` [Compound 118, 4-(5-(4-chlorobenzyl)-1,3,4-oxadiazol-2-ylamino)-N-(thiazol-2-yl)benzenesulfonamide], > 1000 nM; with `Cn1nc(Cc2ccc(Cl)cc2)c(C#N)c1Nc1ccc(S(=O)(=O)Nc2nccs2)cc1` [Compound 119, 4-(3-(4-chlorobenzyl)-4-cyano-1-methyl-1H-pyrazol-5-ylamino)-N-(thiazol-2-yl)benzenesulfonamide], 2000 to 10000 nM.
In the case of `O=S(=O)(Nc1nccs1)c1ccc(Nc2nnc(Cc3ccc(Cl)cc3)s2)cc1` [Compound 120, 4-(5-(4-chlorobenzyl)-1,3,4-thiadiazol-2-ylamino)-N-(thiazol-2-yl)benzenesulfonamide] it was 2000 to 10000 nM; in that of `Cn1nc(Cc2ccc(Cl)cc2)c(C(N)=O)c1Nc1ccc(S(=O)(=O)Nc2nccs2)cc1` [Compound 121, 3-(4-chlorobenzyl)-1-methyl-5-(4-(N-thiazol-2-ylsulfamoyl)phenylamino)-1H-pyrazole-4-carboxamide], > 1000 nM; in that of `Cc1nn(C)c(Nc2ccc(S(=O)(=O)Nc3nccs3)cc2)c1-c1ccccc1` [Compound 122, 4-(1,3-dimethyl-4-phenyl-1H-pyrazol-5-ylamino)-N-(thiazol-2-yl)benzenesulfonamide], > 1000 nM.
`Cc1nn(C(C)(C)C)c(Nc2ccc(S(=O)(=O)Nc3nccs3)cc2)c1-c1ccccc1` [Compound 123, 4-(1-tert-butyl-3-methyl-4-phenyl-1H-pyrazol-5-ylamino)-N-(thiazol-2-yl)benzenesulfonamide]: the IC50 is > 1000 nM.
In the case of `Cc1n[nH]c(Nc2ccc(S(=O)(=O)Nc3nccs3)cc2)c1-c1ccccc1` [Compound 124, 4-(3-methyl-4-phenyl-1H-pyrazol-5-ylamino)-N-(thiazol-2-yl)benzenesulfonamide] it was > 1000 nM; in that of `Cn1nc(CC(C)(C)C)cc1Nc1ccc(S(=O)(=O)Nc2nccs2)cc1` [Compound 125, 4-(1-methyl-3-neopentyl-1H-pyrazol-5-ylamino)-N-(thiazol-2-yl)benzenesulfonamide], 2000 to 10000 nM; in that of `COc1ccc(Cc2cc(Nc3ccc(S(=O)(=O)Nc4nccs4)cc3)n(C)n2)cc1` [Compound 126, 4-(3-(4-methoxybenzyl)-1-methyl-1H-pyrazol-5-ylamino)-N-(thiazol-2-yl)benzenesulfonamide], > 1000 nM.
In the case of `COc1ccccc1Cc1cc(Nc2ccc(S(=O)(=O)Nc3nccs3)cc2)n(C)n1` [Compound 127, 4-(3-(2-methoxybenzyl)-1-methyl-1H-pyrazol-5-ylamino)-N-(thiazol-2-yl)benzenesulfonamide] it was 2000 to 10000 nM; in that of `Cc1cc(Nc2ccc(S(=O)(=O)Nc3nccs3)cc2)n(Cc2ccc(Cl)cc2)n1` [Compound 128, 4-(1-(4-chlorobenzyl)-3-methyl-1H-pyrazol-5-ylamino)-N-(thiazol-2-yl)benzenesulfonamide], 2000 to 10000 nM; in that of `Cc1cc(Nc2ccc(S(=O)(=O)Nc3nccs3)cc2)n(Cc2ccncc2)n1` [Compound 131, 4-(3-methyl-1-(pyridin-4-ylmethyl)-1H-pyrazol-5-ylamino)-N-(thiazol-2-yl)benzenesulfonamide], > 1000 nM.
On to `Cc1cc(Nc2ccc(S(=O)(=O)Nc3nccs3)cc2)n(CC2CCCCC2)n1` [Compound 132, 4-(1-(cyclohexylmethyl)-3-methyl-1H-pyrazol-5-ylamino)-N-(thiazol-2-yl)benzenesulfonamide], for which the IC50 is > 1000 nM.
In the case of `O=C1CC(c2ccccc2)Cc2nc(Nc3ccc(S(=O)(=O)Nc4nccs4)cc3)sc21` (stereo not shown) [Compound 135, 4-(7-oxo-5-phenyl-4,5,6,7-tetrahydrobenzo[d]thiazol-2-ylamino)-N-(thiazol-2-yl)benzenesulfonamide] it was > 1000 nM; in that of `CC1(C)CC(=O)c2sc(Nc3ccc(S(=O)(=O)Nc4nccs4)cc3)nc2C1` [Compound 136, 4-(5,5-dimethyl-7-oxo-4,5,6,7-tetrahydrobenzo[d]thiazol-2-ylamino)-N-(thiazol-2-yl)benzenesulfonamide], > 1000 nM; in that of `Cc1cc(Nc2ccc(S(=O)(=O)Nc3nccs3)cc2)n(-c2ccc(Cl)cc2)n1` [Compound 137, 4-(1-(4-chlorophenyl)-3-methyl-1H-pyrazol-5-ylamino)-N-(thiazol-2-yl)benzenesulfonamide], 2000 to 10000 nM.
For the molecule `Cn1nc(Cc2ccc(C(F)(F)F)cc2)cc1Nc1ccc(S(=O)(=O)Nc2nccs2)cc1` [Compound 138, 4-(1-methyl-3-(4-(trifluoromethyl)benzyl)-1H-pyrazol-5-ylamino)-N-(thiazol-2-yl)benzenesulfonamide], the IC50 was < 2000 nM.
Take `Cn1nc(Cc2ccc(F)cc2F)cc1Nc1ccc(S(=O)(=O)Nc2nccs2)cc1` [Compound 139, 4-(3-(2,4-difluorobenzyl)-1-methyl-1H-pyrazol-5-ylamino)-N-(thiazol-2-yl)benzenesulfonamide]: the IC50 was < 2000 nM.
In the case of `Cc1cc(Nc2ccc(S(=O)(=O)Nc3nccs3)c(F)c2)n(-c2ccc(Cl)cc2)n1` [Compound 140, 4-(1-(4-chlorophenyl)-3-methyl-1H-pyrazol-5-ylamino)-2-fluoro-N-(thiazol-2-yl)benzenesulfonamide] it was < 2000 nM; in that of `Cn1nc(Cc2ccc(Cl)cc2)cc1Nc1ccc(S(=O)(=O)Nc2nccs2)c(F)c1` [Compound 141, 4-(3-(4-chlorobenzyl)-1-methyl-1H-pyrazol-5-ylamino)-2-fluoro-N-(thiazol-2-yl)benzenesulfonamide], < 2000 nM.
For the molecule `Cn1nc(C2(c3ccc(Cl)cc3)CC2)cc1Nc1ccc(S(=O)(=O)Nc2nccs2)cc1F` [Compound 142, 4-(3-(1-(4-chlorophenyl)cyclopropyl)-1-methyl-1H-pyrazol-5-ylamino)-3-fluoro-N-(thiazol-2-yl)benzenesulfonamide], the IC50 was < 2000 nM.
In the case of `Cn1nc(Cc2ccc(Cl)cc2)cc1Nc1ccc(S(=O)(=O)Nc2nccs2)cc1F` [Compound 143, 4-(3-(4-chlorobenzyl)-1-methyl-1H-pyrazol-5-ylamino)-3-fluoro-N-(thiazol-2-yl)benzenesulfonamide], the IC50 was < 2000 nM.
In the case of `O=S(=O)(Nc1nccs1)c1ccc(Nc2cc(C3CC3)nn2-c2ccccc2)cc1` [Compound 144, 4-(3-cyclopropyl-1-phenyl-1H-pyrazol-5-ylamino)-N-(thiazol-2-yl)benzenesulfonamide], the IC50 was < 2000 nM.
